Patent US12281084B2, “Acetyl-CoA synthetase 2 (ACSS2) inhibitors and methods using same” (The Wistar Institute, priority 2019, dated 2025)
“Also recorded” adds a separate entry of the source.

Tests used:
[1] = system: Brpkp110 tumors; assay: Brpkp110 tumor xenograft growth in NSG mice; type: in vivo, mouse; conditions: daily intraperitoneal injection for two weeks, 100 mg/kg (FIG. 5E)
Method: (§1) For BT474 mouse xenograft studies 5-6 week old female NSG […] were anesthetized and one 17β-estradiol 60 day release pellet (Innovative Research of America Cat. No. SE-121) was injected subcutaneously via 10 gauge precision trochar into the lateral side of the neck between the ear and shoulder. 24 hours later 10^5 BT474 luciferase positive cells in 100 μl PBS:matrigel (growth factor reduced) were injected subcutaneously into the hind limb. For A7C11 and Brpkp110 xenografts, 5×10^5 cells in 100 μl PBS:Matrigel (growth factor reduced Corning Cat. No. 356231) were subcutaneously injected into the hindlimb of 5-6 week old female NSG mice […]. Following tumor establishment in all groups, mice were randomized and treated intraperitoneally (IP) daily with vehicle (10% DMSO, 10% absolute ethanol, 20% solutol, 60% water containing 0.5% Tween20) or 100 mg/kg VY-3-135 as indicated in the figure legend. Tumors were measured thrice weekly via caliper measurement and tumor volume calculated as (L×W^2)/2 (where L is the longer of the 2 measurements). At the study conclusion all tumors were resected and processed fresh or flash frozen in liquid nitrogen and stored at −80° C. for downstream analysis.
Tumor bearing mice were given daily intraperitoneal injection of VY-3-135 for two weeks. […]

[2] = system: MDA-MB-468 cells; assay: 13C2-acetate tracing in MDA-MB-468 cells; type: cell-based, human; conditions: MDA-MB-468 cells (FIG. 11D)
Method: All metabolomic experiments were performed in serum-like modified Eagle's medium (SMEM). SMEM contains 54 different nutrients that are found in the bloodstream at concentrations that are physiologically relevant to humans. SMEM was supplemented with 10% or 1% fetal bovine serum (FBS; Life Technologies). Cells were grown in normoxia (atmospheric oxygen) or hypoxia (1% oxygen) while being incubated in uniformly labeled ^13C2-acetate (0.100 mM; Cambridge Isotope Laboratories). Lengths of incubation are described in the figure legends. For extraction of metabolites from cultured cells, SMEM medium was aspirated and cells were washed once in ice-cold PBS. Metabolites were extracted by adding a solution of LC-MS grade methanol/acetonitrile/water (5:3:2) to the well. […]
LC-MS analysis was performed on a Q Exactive Hybrid Quadrupole-Orbitrap HF-X MS (ThermoFisher Scientific) equipped with a HESI II probe and coupled to a Vanquish Horizon UHPLC system (ThermoFisher Scientific). […] Samples were analyzed in full MS scan with polarity switching at scan range 65 to 975 m/z; 120,000 resolution; automated gain control (AGC) target of 1E6; and maximum injection time (max IT) of 100 milliseconds. Identification and quantitation of metabolites was performed using an annotated compound library and TraceFinder 4.1 software. […]

[3] = system: sgACSS2 Brpkp110 tumors; assay: sgACSS2 (Acss2 knockout) Brpkp110 tumor xenograft growth in NSG mice; type: in vivo, mouse; conditions: tumors lacking ACSS2 expression (FIG. 5F)
Text: CRISPR-Cas9 pools of Brpkp110 and A7C11 were generated using single guide RNAs against exon 1 in mouse Acss2. Cas9 and guide RNAs were introduced into Brpkp110 and A7C11 cell by lentiviral infection. Briefly, HEK293T cells were transfected (Lipofectamine 2000) with psPAX2, pVSV-G, and pLentiCRISPRV2-blast containing a single guide RNA cloned into the BsmBI site (GE Healthcare). Transduced pools of Brkp110 and A7C11 cells were selected using blasticidin S.
as §1, with “Following tumor establishment in all groups, mice were randomized and treated intraperitoneally (IP) daily with vehicle (10% DMSO, 10% absolute ethanol, 20% solutol, 60% water containing 0.5% Tween20) or 100 mg/kg VY-3-135 as indicated in the figure legend.” left out, “At the study conclusion all tumors were resected and processed fresh or flash frozen in liquid nitrogen and stored at −80° C. for downstream analysis.” left out

CCn1c(C(O)(c2ccccc2)c2ccccc2)nc2ccc(C(=O)NC[C@@H](C)O)cc21 [VY-3-135, (R)-1-ethyl-2-(hydroxydiphenylmethyl)-N-(2-hydroxypropyl)-1H-benzo[d]imidazole-6-carboxamide]
Brpkp110 tumor growth [1]: causes a significant decrease in Brpkp110 tumor growth; also recorded: caused significant reduction in Brpkp110 tumor growth | incorporation of 13C2-acetate into UDP-GlcNAc [2]: able to block incorporation of ^13C2-acetate into UDP-GlcNAc to nearly the levels of unlabeled cells | sgACSS2 Brpkp110 tumor growth [3]: did not further affect the growth of Brpkp110 sgACSS2 tumors; also recorded: no further effect on tumor growth
